Key:
[1] = Radical-entrapping ability (DPPH oxidation-inhibitory activity); format: biochemical; settings: for EC50: DPPH, ambient temperature, 20 min, read-out: EC50 (50% oxidation-inhibitory-concentration); for Oxidation inhibitory effect (%): sample concentration 10^-4 M
Experimental: In parallel, as a control, a system using a 60 v/v % aqueous ethanol solution was provided in place of the test samples, and treated similarly as in the case of the acyl derivatives. The percentage (%) of the absorbance of the test samples to that of the control was regarded as an oxidation-inhibitory activity, and the activity was used as an index of radical-entrapping ability. The 50% oxidation-inhibitory-concentration (EC50) was calculated based on a logarithmic value of a concentration of the test sample used and on an oxidation-inhibitory ability shown by the sample at the concentration.

[2] = test system: guinea pigs with scorbutus; assay: Anti-scorbutus test; format: in vivo, male Hurtley's guinea pigs; settings: for days needed to recover maximum body weight before initiating the administration: oral, 56.80 μmol/head/shot once every morning
Experimental: In accordance with the method as reported in Journal of Pharmacobio-Dynamics, Vol. 13, pp. 688-695 (1990) by the present inventors, male Hurtley's guinea pigs, 4-week-old, were bred under free intake of water and vitamin C-defective food, commercialized by Oriental Yeast Co., Ltd., Tokyo, Japan, while the guinea pigs were weighed every morning at a prescribed time as an index of the symptom of anti-scorbutus disease. […] In parallel, one group as a control, in which guinea pigs were administered with only a fresh preparation of the same water free of the specimens, was provided and treated similarly as in the groups with the specimens.

physchem = settings: phosphate buffer, pH 7
Experimental: To the solution was added 9.8 ml of 100 mM phosphate buffered aqueous solution (pH 7.0), and the aqueous solution was sterilized, and then incubated at 37° C. or 60° C. while the aqueous solution was sampled at prescribed times, followed by freezing the samples instantly at -30° C. for storing. Thereafter, the aqueous solution stored by freezing was thawed, analyzed on HPLC, and determined for the remaining content of the acyl derivatives based on the absorbance at a wavelength of 254 nm.

[3] = test system: artificial skin (TESTSKIN, human-skin-restructuring-model); assay: Skin permeation test using TESTSKIN; settings: 10 mM, 37° C., peak levels
[4] = Dynamic test, intravenous administration to rats (blood level); format: in vivo, Male Wister/ST rats
Experimental: Male Wister/ST rats, 12-14-week-old, were fasted for 16 hours and, under an anesthetic, 200-μl blood was taken from their hearts using a syringe injected with a physiological saline containing 600 units/ml heparin. […] Just after the administration and after a prescribed period of time from the administration, blood was taken from the rats similarly as above at a prescribed time interval, and the blood taken was admixed with an adequate amount of heparin and instantly centrifuged at 4° C. to collect supernatants.

With `O=C1O[C@H]([C@@H](O)CO)C(O)=C1O[C@H]1O[C@H](CO)[C@@H](O)[C@H](O)[C@H]1O` [AA 2G, 2-O-α-D-Monoglucopyranosyl-L-ascorbic acid] the EC50 [1] was 90.3 µM, the “Oxidation inhibitory effect (%)” value [1] was 55.4% and the “internal bleeding caused by scorbutus” value ([2]; anatomic finding) was “no such an observation”. For the same compound, the “blood level of alkaline phosphatase” value ([2]; blood) was “recovered almost to the normal level”, the “level of L-ascorbic acid in the blood” value ([2]; blood, numeral data excluded) was “recovered nearly to a normal level” and the “level of L-ascorbic acid in the liver” value ([2]; liver, numeral data excluded) was “recovered nearly to a normal level”. The “days needed to recover maximum body weight before initiating the administration” value [2] was “eight”, the degraded at 48 h (physchem) was 3.9% and the degraded at 336 h (physchem) was 1.6%.

In the case of `O=C1O[C@H]([C@@H](O)CO)C(O)=C1O` [AsA, L-Ascorbic acid], the EC50 [1] is reported as 46.4 µM, the “Oxidation inhibitory effect (%)” value [1] is reported as 93.7% and the degraded at 12 h (physchem) is reported as 75.9%. For the same compound, the degraded at 72 h (physchem) was 68.3%.

With `CCCC(=O)OC[C@H](O)[C@H]1OC(=O)C(O[C@H]2O[C@H](CO)[C@@H](O)[C@H](O)[C@H]2O)=C1O` [Example 6-Buty-AA-2G, 6-O-butyryl-2-O-α-D-monoglucopyranosyl-L-ascorbic acid] the EC50 [1] was 99.8 µM and the “Oxidation inhibitory effect (%)” value [1] was 50.1%.

In the case of `CCCCCCCCCC(=O)OC[C@H](O)[C@H]1OC(=O)C(O[C@H]2O[C@H](CO)[C@@H](O)[C@H](O)[C@H]2O)=C1O` [Example 6-Deca-AA-2G, 6-O-decanoyl-2-O-α-D-monoglucopyranosyl-L-ascorbic acid], the EC50 [1] is reported as 73 µM and the “Oxidation inhibitory effect (%)” value [1] is reported as 67.5%.

For `CCCCCCCCCCCC(=O)OC[C@H](O)[C@H]1OC(=O)C(O[C@H]2O[C@H](CO)[C@@H](O)[C@H](O)[C@H]2O)=C1O` [Example 6-Dode-AA-2G, 6-O-dodecanoyl-2-O-α-D-monoglucopyranosyl-L-ascorbic acid], the “skin permeability (peak level) relative to L-ascorbic acid” value [3] was 7 times, the EC50 [1] was 63.2 µM and the “Oxidation inhibitory effect (%)” value [1] was 78.3%.

With `CCCCCC(=O)OC[C@H](O)[C@H]1OC(=O)C(O[C@H]2O[C@H](CO)[C@@H](O)[C@H](O)[C@H]2O)=C1O` [Example 6-Hexa-AA-2G, 2-O-α-D-monoglucopyranosyl-6-O-hexanoyl-L-ascorbic acid] the EC50 [1] was 91 µM and the “Oxidation inhibitory effect (%)” value [1] was 55.1%.

With `CCCCCCCC(=O)OC[C@H](O)[C@H]1OC(=O)C(O[C@H]2O[C@H](CO)[C@@H](O)[C@H](O)[C@H]2O)=C1O` [Example 6-Octa-AA-2G, 2-O-α-D-monoglucopyranosyl-6-O-octanoyl-L-ascorbic acid] the EC50 [1] was 82.7 µM, the “Oxidation inhibitory effect (%)” value [1] was 60.4% and the “blood level of 2-O-α-D-monoglucopyranosyl-L-ascorbic acid after its maximum, when administered with 6-Octa-AA-2G” value ([4]; metabolite, after maximum) was “undetectable level”. The concentration at 0.25 h ([4]; rat, blood, 15 min after administration, read-out: blood level of 6-Octa-AA-2G) was 38.2 µM, the concentration at 2 min ([4]; rat, blood, two minutes after administration, read-out: blood level of 6-Octa-AA-2G) was 525 µM and the “blood level of L-ascorbic acid compared with 2-O-α-D-monoglucopyranosyl-L-ascorbic acid” value ([4]; throughout experiment) was “exceeded”. The “days needed to recover maximum body weight before initiating the administration” value [2] was “six”.

Source: patent US6248905A, “Acyl derivatives of glycosyl-L-ascorbic acid” (priority 1998, dated 2001)
